Read-outs that look alike come from different tables or passages of the source.
Assays:
Assay type in all cases: cell-based
[1] = test system: Huh-7 luc/neo HCV replicon cells with conditioned media from PBMC; experiment: Interferon production in human PBMC (PBMC-HUH7_EC50), HCV replicon readout with conditioned media; settings: Homo sapiens, Huh-7; concentration applied to PBMCs giving 50% reduction of replicon luciferase activity
Description: Measurement of Interferon Production in Human PBMC (PBMC-HUH7_EC50)
Activation of human TLR7 results in robust production of interferon by plasmacytoid dendritic cells present in human blood. The potential of compounds to induce interferon was evaluated by looking at the antiviral activity in the HCV replicon system upon incubation with conditioned media from peripheral blood mononuclear cells (PBMC). The HCV replicon assay is based on a bicistronic expression construct, as described by Lohmann et al. (Science (1999) 285: 110-113; Journal of Virology (2003) 77: 3007-15 3019) with modifications described by Krieger et al. (Journal of Virology (2001) 75: 4614-4624). The assay utilized the stably transfected cell line Huh-7 luc/neo harboring an RNA encoding a bicistronic expression construct comprising the wild type NS3-NS5B regions of HCV type 1b translated from an Internal Ribosome Entry Site (IRES) from encephalomyocarditis virus (EMCV), preceded by a reporter gene (Firefly-luciferase) and a selectable marker gene (neoR, neomycine phosphotransferase). The construct is flanked by 5′ and 3′ NTRs (non-translated regions) from HCV type 1b. Continued culture of the replicon cells in the presence of G418 (neoR) is dependent on the replication of the HCV RNA. The stably transfected replicon cells that replicate HCV RNA autonomously and to high levels, encoding inter alia luciferase, were used for profiling of the conditioned cell culture media. Briefly, PBMCs were prepared from buffy coats of at least two donors using a standard Ficoll centrifugation protocol. Isolated PBMCs were resuspended in RPMI medium supplemented with 10% human AB serum and 2×10^5 cells/well were dispensed into 384-well plates containing compounds (70 μL total volume). After overnight incubation, […] was transferred to 384-well plates containing 2.2×10^3 replicon cells/well in 30 μL (plated the day before). Following 24 hours of incubation, replication was measured by assaying luciferase activity using 40 μL/well Steady Lite Plus substrate (Perkin Elmer) and measured with ViewLux ultraHTS microplate imager (Perkin Elmer). The inhibitory activity of each compound on the Huh7-luc/neo cells were reported as EC50 values, defined as the compound concentration applied to the PBMCs resulting in a 50% reduction of luciferase activity which in turn indicates the degree of replication of the replicon RNA on transfer of a defined amount of PBMC culture medium. Recombinant interferon α-2a (Roferon-A) was used as a standard control compound.

[2] = test system: human TLR7 dIRR2 mutant; experiment: Reporter assay for TLR7 activity, HEK293 transfected with mutant TLR7 (dIRR2 deletion) and NFκB-luc; settings: lowest effective concentration; 48 h transfection
[3] = molecular target: human TLR7 (Homo sapiens (Human), UniProt Q9NYK1); experiment: Reporter assay for TLR7 activity, HEK293 transiently transfected with wild type TLR7 and NFκB-luc; settings: lowest effective concentration; 48 h transfection
Chain of human TLR7 (Q9NYK1 27-1049): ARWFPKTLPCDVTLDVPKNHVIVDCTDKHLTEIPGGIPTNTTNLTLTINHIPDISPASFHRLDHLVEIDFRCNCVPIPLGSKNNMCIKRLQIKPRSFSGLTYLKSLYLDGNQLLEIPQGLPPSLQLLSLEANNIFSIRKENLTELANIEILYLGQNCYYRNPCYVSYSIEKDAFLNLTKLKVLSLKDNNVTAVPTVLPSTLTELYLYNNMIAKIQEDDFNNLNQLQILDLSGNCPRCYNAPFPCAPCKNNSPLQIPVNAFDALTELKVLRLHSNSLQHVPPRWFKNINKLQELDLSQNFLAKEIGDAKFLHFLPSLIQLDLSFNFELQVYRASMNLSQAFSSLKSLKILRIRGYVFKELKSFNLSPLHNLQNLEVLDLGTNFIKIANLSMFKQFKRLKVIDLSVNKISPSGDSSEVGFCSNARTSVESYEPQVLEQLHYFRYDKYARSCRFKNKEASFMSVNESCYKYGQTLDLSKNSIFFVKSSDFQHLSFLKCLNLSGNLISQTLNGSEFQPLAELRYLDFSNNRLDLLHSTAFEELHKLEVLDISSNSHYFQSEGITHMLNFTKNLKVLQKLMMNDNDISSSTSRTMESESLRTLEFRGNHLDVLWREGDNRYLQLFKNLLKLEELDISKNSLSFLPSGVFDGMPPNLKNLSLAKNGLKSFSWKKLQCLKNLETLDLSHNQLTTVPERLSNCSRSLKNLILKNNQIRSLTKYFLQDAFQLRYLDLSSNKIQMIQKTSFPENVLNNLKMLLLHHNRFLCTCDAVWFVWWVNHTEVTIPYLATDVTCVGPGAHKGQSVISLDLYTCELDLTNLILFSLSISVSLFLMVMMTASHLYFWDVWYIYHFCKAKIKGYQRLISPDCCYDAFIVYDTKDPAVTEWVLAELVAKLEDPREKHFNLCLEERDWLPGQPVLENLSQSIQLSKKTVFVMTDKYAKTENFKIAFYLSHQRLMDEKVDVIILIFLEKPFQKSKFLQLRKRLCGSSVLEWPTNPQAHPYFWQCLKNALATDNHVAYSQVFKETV

[4] = test system: HEK-ISRE-luc cells with conditioned media from PBMC; experiment: Interferon production in human PBMC (PBMC HEK-ISRE-luc LEC); settings: Homo sapiens, PBMC, read-out: PBMC HEK-ISRE-luc (LEC)
Description: Measurement of Interferon Production in Human PBMC (PBMC HEK-ISRE-Luc LEC)
Activation of human TLR7 results in robust production of interferon by plasmacytoid dendritic cells present in human blood. The potential of compounds to induce interferon was evaluated by determination of interferon in the conditioned media from peripheral blood mononuclear cells (PBMC). The presence of interferon in the samples was determined, using an interferon reporter cell line stably expressing an interferon-stimulated responsive elements (ISRE)-luc reporter construct. The ISRE element with sequence GAAACTGAAACT (SEQ ID NO: 1) is highly responsive to the STAT1-STAT2-IRF9 transcription factor, which becomes activated upon binding of IFN-I to the IFN receptor. Briefly, PBMCs were prepared from buffy coats of at least two donors using a standard Ficoll centrifugation protocol. Isolated PBMCs were resuspended in RPMI medium supplemented with 10% human AB serum and 2×10^5 cells/well were dispensed into 384-well plates containing compounds (70 μL total volume). After overnight incubation of the PBMCs with the compounds, 10 μL of supernatant was transferred to 384-well plates containing 5×10^3 HEK-ISRE-luc cells/well in 30 μL (plated the day before). Following 24 hours of incubation, activation of the ISRE elements was measured by assaying luciferase activity using 40 μL/well Steady Lite Plus substrate (Perkin Elmer) and measured with ViewLux ultraHTS microplate imager (Perkin Elmer). The stimulating activity of each compound on the HEK-ISRE-luc cells was reported as LEC. The LEC in turn indicates the degree of ISRE activation on transfer of a defined amount of PBMC culture medium.
Recombinant interferon alfa-2a (Roferon-A) was used as a standard control compound.

SMILES | EC50 [1] [nM] | TLR7-dIRR2_LEC 48 h [2] [µM] | TLR7-wt_LEC 48 h [3] [µM] | minimal effective concentration ([4]; lowest effective concentration) [µM] | minimal effective concentration [4] [µM]
Cc1nc(-c2nc(N)c3[nH]c(=O)n(Cc4ccccc4)c3n2)[nH]c1C [Compound 7] | 640 | 1.46 | >25 | 0.88 | 
Cc1c[nH]c(-c2nc(N)c3[nH]c(=O)n(Cc4ccccc4)c3n2)n1 [Compound 8] | 170 | 0.17 | 5.91 | 0.25 | 
Cc1ccc(Cn2c(=O)[nH]c3c(N)nc(-c4ncc[nH]4)nc32)cn1 [Compound 9] | 50 | 0.07 | 0.88 | 0.03 | 
COCCn1ccnc1-c1nc(N)c2[nH]c(=O)n(Cc3ccccc3)c2n1 [Compound 11] | 330 | 0.19 | 5.36 | 0.32 | 
Cn1ccnc1-c1nc(N)c2[nH]c(=O)n(Cc3ccccc3)c2n1 [Compound 12] | 590 | 0.3 | 8.08 | 0.34 | 
Nc1nc(-c2ccn[nH]2)nc2c1[nH]c(=O)n2Cc1ccccc1 [Compound 23] | 130 | 0.007 | 0.23 | 0.12 | 
Nc1nc(-c2ncc[nH]2)nc2c1[nH]c(=O)n2Cc1ccc2c(c1)CNCC2 [Compound 24] | 46 | 0.11 | 1.81 | 0.03 | 
Nc1nc(-c2ncc[nH]2)nc2c1[nH]c(=O)n2Cc1cccc(CN2CCCC2)c1 [Compound 25] | 6 | 0.39 | 2.46 | 0.007 | 
Cc1ccc(Cn2c(=O)[nH]c3c(N)nc(-c4nc(C5CC5)c[nH]4)nc32)cn1 [Compound 26] | 5 | 0.21 | 2.42 | 0.006 | 
Nc1nc(-c2nccn2CCO)nc2c1[nH]c(=O)n2Cc1ccccc1 [Compound 27] | 800 | 0.63 | 6.03 | 0.43 | 
CC(C)(C)c1c[nH]c(-c2nc(N)c3[nH]c(=O)n(Cc4ccccc4)c3n2)n1 [Compound 28] | > 23800 | 8.77 | >25 | > 23.8 | 
CC(C)c1c[nH]c(-c2nc(N)c3[nH]c(=O)n(Cc4ccccc4)c3n2)n1 [Compound 29] | 1660 | 1.58 |  | 0.82 | 
CCc1c[nH]c(-c2nc(N)c3[nH]c(=O)n(Cc4ccccc4)c3n2)n1 [Compound 30] | 170 | 0.14 | 12.71 | 0.12 | 
Nc1nc(-c2nc(C(F)(F)F)c[nH]2)nc2c1[nH]c(=O)n2Cc1ccccc1 [Compound 31] | 1300 | 0.51 | 23.23 | 2.2 | 
Nc1nc(-c2cnco2)nc2c1[nH]c(=O)n2Cc1ccccc1 [Compound 32] | 1510 | 0.97 | 6.5 | 0.97 | 
Cc1noc(-c2nc(N)c3[nH]c(=O)n(Cc4ccccc4)c3n2)n1 [Compound 33] | 810 | 0.98 | 21.66 | 0.52 | 
COCCc1nnc(-c2nc(N)c3[nH]c(=O)n(Cc4ccccc4)c3n2)o1 [Compound 34] | 690 | 1.21 | >25 | 0.49 | 
Cc1cnn(-c2nc(N)c3[nH]c(=O)n(Cc4ccccc4)c3n2)c1 [Compound 35] | 170 | 0.033 | 0.36 | 0.1 | 

SMILES | EC50 [1] [nM] | TLR7-dIRR2_LEC 48 h [2] [µM] | TLR7-wt_LEC 48 h [3] [µM] | minimal effective concentration ([4]; lowest effective concentration) [µM] | minimal effective concentration [4] [µM]
COC(=O)c1cccc(Cn2c(=O)[nH]c3c(N)nc(-n4cccn4)nc32)c1 [Compound 37] |  |  | 0.05 | 0.01 | 
Nc1nc(-n2cccn2)nc2c1[nH]c(=O)n2Cc1cccc(C(=O)O)c1 [Compound 38] |  |  | 0.38 | > 25 | 
Nc1nc(-n2cccn2)nc2c1[nH]c(=O)n2Cc1cccc(CO)c1 [Compound 39] |  |  | 0.05 | 0.01 | 
CCOP(=O)(Cc1cccc(Cn2c(=O)[nH]c3c(N)nc(-n4cccn4)nc32)c1)OCC [Compound 40] |  |  | 0.03 |  | 0.01
Cl.Nc1nc(-n2cccn2)nc2c1[nH]c(=O)n2Cc1cccc(CP(=O)(O)O)c1 [Compound 41] |  |  | 0.03 | 0.4 | 
Nc1nc(-c2ccn[nH]2)nc2c1[nH]c(=O)n2Cc1cn2ccccc2n1 [Compound 43] |  |  | 0.50 | 0.15 | 
COC(=O)c1cccc(Cn2c(=O)[nH]c3c(N)nc(-c4ccn[nH]4)nc32)c1 [Compound 44] |  |  | 0.10 | 0.04 | 
Nc1nc(-c2ccn[nH]2)nc2c1[nH]c(=O)n2Cc1cccc(C(=O)O)c1 [Compound 45] |  |  | 0.58 | 1.37 | 
Nc1nc(-c2ccn[nH]2)nc2c1[nH]c(=O)n2Cc1cccc(CO)c1 [Compound 46] |  |  | 0.21 | 0.03 | 
CCOP(=O)(CCCn1ccnc1-c1nc(N)c2[nH]c(=O)n(Cc3ccccc3)c2n1)OCC [Compound 47] |  |  | 14.12 |  | 1.64
Nc1nc(-n2cccn2)nc2c1[nH]c(=O)n2Cc1cn2ccccc2n1 [Compound 48] |  |  | 0.01 | 0.01 | 
COc1ccnc(Cn2c(=O)[nH]c3c(N)nc(-n4cccn4)nc32)c1OC [Compound 49] |  |  | 0.31 | 0.06 | 
Cc1ccc(Cn2c(=O)[nH]c3c(N)nc(-n4cccn4)nc32)cn1 [Compound 50] |  |  | 0.03 | 0.01 | 
Nc1nc(-c2cc(C3CC3)n[nH]2)nc2c1[nH]c(=O)n2Cc1ccccc1 [Compound 51] |  |  | 0.16 | 0.17 | 
Nc1nc(-c2ccn(CCO)n2)nc2c1[nH]c(=O)n2Cc1ccccc1 [Compound 52] |  | 0.41 | 4.42 | 0.42 | 
Cc1cn[nH]c1-c1nc(N)c2[nH]c(=O)n(Cc3ccccc3)c2n1 [Compound 53] | 760 | 0.36 | 3.17 |  | 
Nc1nc(-c2ncc[nH]2)nc2c1[nH]c(=O)n2Cc1cccc(C(=O)N2CCCC2)c1 [Compound 55] | 1270 | 0.06 |  | 1.16 | 
